How the values were obtained:
[1] = test system: LTB4 production in human whole blood; assay: Inhibition of LTB4 Production in Blood; assay type: cell-based; conditions: 1 h, 20 μM A23187, 60 minutes at 37° C., LTB4 in plasma by ELISA, read-out: protection against LTB4 at an EC50
Method: • Human whole blood (Na citrate) (Stanford Blood Center) • A23187, (Sigma, Cat# C-7522) • Leukotriene B4 EIA reagents (Cayman Chemical, Cat # 520111) • BWA4C (Sigma, Cat # B7559) Procedure Preparation of A23187:
A23187 was prepared as a 10 mM stock solution in DMSO (aliquots can be stored at −20° C.). On the day of the assay the stock solution was diluted as follows: 70 μL 10 mM stock added to 1.6 mL plasma to give a working concentration of 0.42 mM.
From a 30 mM stock solution in DMSO, test articles were diluted to a working concentration of 600 μM in PBS (i.e. 10 μL stock solution+490 μL PBS). This is the highest concentration (gives a final testing concentration of 30 μM). From this 600 μM solution test articles were serially diluted 1:3 in PBS to give a dose-response curve. 10 μL of each concentration of test article was then added to 4 wells of a 96-well plate (i.e. testing in quadruplicate). A positive control compound, BWA4C was used in every assay.
Human whole blood was added to the plates containing compounds (190 μL per well) and mixed well. The blood was incubated with compound at 37° C. for 15 minutes. Following this incubation, 10 μL of 0.42 mM A23187 was added to each well except the negative control wells to give a final calcium ionophore concentration of 20 μM. The plates were then incubated at 37° C. for 60 minutes. After the incubation period, plates were centrifuged for 15 min at 2000 g at 4° C. in sealed microplate buckets. Plasma was then removed for quantitation of LTB4 levels by ELISA.
LTB4 levels in the plasma were determined using a commercially available ELISA kit from Cayman Chemicals. The ELISA was run according to the manufacturer's instructions. The LTB4 levels in the vehicle control sample were then compared to those in which the test article had been added. From this a percent inhibition of LTB4 production by each concentration of test article was calculated and the IC50 was determined.

[2] = target: T1, human recombinant 5-Lipoxygenase (Homo sapiens, UniProt P09917); assay: 5-Lipoxygenase Enzyme Assay; assay type: biochemical; conditions: 70 μM arachidonic acid, 10 minute incubation at room temperature, FOX reagent, absorbance at 620 nm; read-out: inhibition of 5-Lipoxygenase with an IC50
T1 sequence (P09917 1-674): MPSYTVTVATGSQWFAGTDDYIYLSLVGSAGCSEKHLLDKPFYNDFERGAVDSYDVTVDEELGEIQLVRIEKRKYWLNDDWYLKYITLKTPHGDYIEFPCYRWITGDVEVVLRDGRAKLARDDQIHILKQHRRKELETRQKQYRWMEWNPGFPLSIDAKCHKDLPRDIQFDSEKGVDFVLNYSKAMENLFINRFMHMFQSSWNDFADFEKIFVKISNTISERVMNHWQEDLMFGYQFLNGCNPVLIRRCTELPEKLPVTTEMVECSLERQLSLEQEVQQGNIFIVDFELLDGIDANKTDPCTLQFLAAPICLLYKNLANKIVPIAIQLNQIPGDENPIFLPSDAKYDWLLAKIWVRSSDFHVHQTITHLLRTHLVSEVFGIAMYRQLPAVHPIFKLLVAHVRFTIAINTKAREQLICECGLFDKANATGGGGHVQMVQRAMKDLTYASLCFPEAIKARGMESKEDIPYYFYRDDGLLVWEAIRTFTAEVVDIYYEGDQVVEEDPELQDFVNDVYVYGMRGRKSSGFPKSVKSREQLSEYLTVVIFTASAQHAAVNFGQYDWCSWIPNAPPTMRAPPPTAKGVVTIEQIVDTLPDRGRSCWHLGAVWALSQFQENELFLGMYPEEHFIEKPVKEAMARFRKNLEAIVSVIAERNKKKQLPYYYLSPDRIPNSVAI
From the text: This procedure was used for measuring the enzymatic activity of human recombinant 5-Lipoxygenase using a colorimetric method based on the ferric oxidation of xylenol orange.
• 96 well flat bottom microfilter plates (VWR, Catalog # 62402-933 9295) • Lipoxygenase screening assay buffer (Cayman, Catalog # 760710) • Human recombinant 5-Lipoxygenase (Cayman, Catalog # 60402) • Arachidonic Acid (Sigma, Catalog # A3555) • Xylenol orange tetra sodium salt (Aldrich, Catalog # 227854) • Iron (II) sulfate heptahydrate (Sigma, Catalog # F7002) • Sulfuric acid (95-98%) [18 M] • Methanol Procedure
Human recombinant 5-Lipoxygenase (Cayman Cat # 60402) was used in this assay. The test compound and/or vehicle was added to 0.5 μL 5-Lipoxygenase in 50 mM Tris-HCl buffer, pH 7.4. The reaction was initiated by addition of 70 μM arachidonic acid in Tris-HCl buffer, pH 7.4, and terminated after a 10 minute incubation at room temperature by addition of FOX reagent (25 mM sulfuric acid, 100 μM xylenol orange, 100 μM iron (II) sulfate, methanol:water 9:1). The yellow color of acidified xylenol orange was converted to a blue color by the lipid hydroperoxide-mediated oxidation of Fe^2+ ions and the interaction of the resulting Fe^3+ ions with the dye. The complex was allowed to form during a 1 hour incubation at room temperature with shaking. Absorbance of the Fe^3+ complex was then measured at […] using a spectrophotometer.
Negative controls contained enzyme during the incubation step but substrate was not added until after the FOX reagent. Compounds were screened at 5 concentrations in triplicate starting at 10 μM

| SMILES | EC50 [1] | IC50 [2] |
| --- | --- | --- |
| CC(C)=CCC/C(C)=C/Cc1c(O)c(C)c(C)c2c1CCC1(CCC1)O2 [5-(3,7-dimethylocta-2,6-dienyl)-7,8-dimethylspiro[chroman-2,1′-cyclobutan]-6-ol] | < 10 µM | < 0.3 µM |
| CCc1c(O)c(C)cc2c1C(NOC)CC1(CCC1)O2 (stereo not drawn) [5-ethyl-4-(methoxyamino)-7-methyl-3,4-dihydrospiro[chromene-2,1′-cyclobutan]-6-ol] | < 10 µM | < 0.3 µM |
| CCc1c(O)c(C(C)C)cc2c1C(O)CC1(CCC1)O2 (stereo not drawn) [5-ethyl-7-isopropylspiro[chroman-2,1′-cyclobutane]-4,6-diol] | < 10 µM | – |
| Cc1cc2c(c(C)c1O)CCC1(CCC1)N2Cc1ccc2ccccc2n1 [5′,7′-dimethyl-1′-(quinolin-2-ylmethyl)-3′,4′-dihydro-1′H-spiro[cyclobutane-1,2′-quinolin]-6′-ol] | < 10 µM | < 0.3 µM |
| CCc1cc2c(c(C)c1O)C(NOC)CC1(CCC1)O2 (stereo not drawn) [7-ethyl-4-(methoxyamino)-5-methyl-3,4-dihydrospiro[chromene-2,1′-cyclobutan]-6-ol] | < 10 µM | < 0.3 µM |
| CONC1CC2(CCC2)Oc2cc(C(C)C)c(O)c(C)c21 (stereo not drawn) [7-isopropyl-4-(methoxyamino)-5-methyl-3,4-dihydrospiro[chromene-2,1′-cyclobutan]-6-ol] | < 10 µM | < 0.3 µM |
| COC1CC2(CCC2)Oc2cc(C(C)C)c(O)c(C)c21 (stereo not drawn) [7-isopropyl-4-methoxy-5-methylspiro[chroman-2,1′-cyclobutan]-6-ol] | < 10 µM | < 0.3 µM |
| Cc1c(O)c(C(C)C)cc2c1C(O)CC1(CCC1)O2 (stereo not drawn) [7-isopropyl-5-methylspiro[chroman-2,1′-cyclobutane]-4,6-diol] | < 10 µM | < 0.3 µM |
| Cc1c(O)c(C(C)C)cc2c1C(O)C1(CCC1)CO2 (stereo not drawn) [7-isopropyl-5-methylspiro[chroman-3,1′-cyclobutane]-4,6-diol] | < 10 µM | – |
| Cc1c(O)c(C)c2c(c1CO)OC1(CCC1)CC2 [8-(hydroxymethyl)-5,7-dimethyl-3,4-dihydrospiro[chromene-2,1′-cyclobutan]-6-ol] | < 10 µM | – |
| Cc1c(O)c(C(C)C)c(CO)c2c1CCC1(CCC1)O2 [8-(hydroxymethyl)-7-isopropyl-5-methylspiro[chroman-2,1′-cyclobutan]-6-ol] | < 10 µM | < 0.3 µM |
| CCc1cc2c(c(CC)c1O)[C@H](O)CC1(CCC1)O2 [(R)-5,7-diethylspiro[chroman-2,1′-cyclobutane]-4,6-diol] | < 10 µM | < 0.3 µM |
| Cc1c(O)c(C(C)C)cc2c1[C@H](O)CC1(CCC1)O2 [(R)-7-isopropyl-5-methylspiro[chroman-2,1′-cyclobutane]-4,6-diol] | < 10 µM | < 0.3 µM |
| CCc1cc2c(c(CC)c1O)[C@@H](O)CC1(CCC1)O2 [(S)-5,7-diethylspiro[chroman-2,1′-cyclobutane]-4,6-diol] | < 10 µM | < 0.3 µM |
| Cc1c(O)c(C(C)C)cc2c1[C@@H](O)CC1(CCC1)O2 [(S)-7-isopropyl-5-methylspiro[chroman-2,1′-cyclobutane]-4,6-diol] | < 10 µM | < 0.3 µM |
| CCc1c(O)c(CC)c2c(c1CO)OC1(CCC1)CC2 [(Z)-5,7-diethyl-8-(hydroxymethyl)-3,4-dihydrospiro[chromene-2,1′-cyclobutan]-6-ol] | < 10 µM | < 0.3 µM |
| Cc1ccc(S(=O)(=O)NCCN2CC3(CCC3)Cc3cc(O)c(C)c(C)c32)cc1 [N-(2-(6′-hydroxy-7′,8′-dimethyl-2′,4′-dihydro-1′H-spiro[cyclobutane-1,3′-quinoline]-1′-yl)ethyl)-4-methylbenzenesulfonamide] | < 10 µM | < 0.3 µM |
| Cc1ccc(S(=O)(=O)NCCCN2CC3(CCC3)Cc3cc(O)c(C)c(C)c32)cc1 [N-(3-(6′-hydroxy-7′,8′-dimethyl-2′,4′-dihydro-1′H-spiro[cyclobutane-1,3′-quinoline]-1′-yl)propyl)-4-methylbenzenesulfonamide] | < 10 µM | < 0.3 µM |
| Cc1c(O)cc2c(c1C)N(CCCNC(=O)c1ccccc1)CC1(CCC1)C2 [N-(3-(6′-hydroxy-7′,8′-dimethyl-2′,4′-dihydro-1′H-spiro[cyclobutane-1,3′-quinoline]-1′-yl)propyl)benzamide] | < 10 µM | < 0.3 µM |

Results, then the molecule that gave them:

| EC50 [1] | IC50 [2] | SMILES |
| --- | --- | --- |
| < 10 µM | < 0.3 µM | Cc1c(O)cc2c(c1C)N(c1ccc(O)cc1)C1(CC2)CC1 [1′-(4-hydroxyphenyl)-7′,8′-dimethyl-3′,4′-dihydro-1′H-spiro[cyclopropane-1,2′-quinolin]-6′-ol] |
| < 10 µM | < 0.3 µM | Cc1c(O)cc2c(c1C)N(c1ccc(N(C)C)nc1)CC1(CCC1)C2 [1′-(6-(dimethylamino)pyridin-3-yl)-7′,8′-dimethyl-2′,4′-dihydro-1′H-spiro[cyclobutane-1,3′-quinolin]-6′-ol] |
| < 10 µM | – | CONCC1Cc2c(cc(C)c(O)c2C)OC12CCC2 (stereo not drawn) [3-[(methoxyamino)methyl]-5,7-dimethyl-3,4-dihydrospiro-[chromene-2,1′-cyclobutan]-6-ol] |
| < 10 µM | < 0.3 µM | Cc1c(C)c2c(c(C)c1O)C(N(C)O)CC1(CCC1)O2 (stereo not drawn) [4-[hydroxy(methyl)amino]-5,7,8-trimethyl-3,4-dihydrospiro[chromene-2,1′-cyclobutan]-6-ol] |
| < 10 µM | – | Cc1cc2c(c(C)c1O)C(N(C)O)CC1(CCC1)O2 (stereo not drawn) [4-[hydroxy(methyl)amino]-5,7-dimethyl-3,4-dihydrospiro[chromene-2,1′-cyclobutan]-6-ol] |
| < 10 µM | < 0.3 µM | Cc1c(C)c2c(c(C)c1O)C(O)C1(CCC1)CO2 (stereo not drawn) [5,7,8-trimethylspiro[chroman-3,1′-cyclobutane]-4,6-diol] |
| < 10 µM | < 0.3 µM | CCc1cc2c(c(CC)c1O)CCC1(CCC1)O2 [5,7-diethyl-3,4-dihydrospiro[chromene-2,1′-cyclobutan]-6-ol] |
| < 10 µM | – | Cc1cc2c(c(C)c1O)C(O)CC1(CCC1)O2 (stereo not drawn) [5,7-dimethyl-3,4-dihydrospiro[chromene-2,1′-cyclobutane]-4,6-diol] |
| < 10 µM | < 0.3 µM | Cc1cc2c(c(C)c1O)C=C(c1nc(C)c(C)[nH]1)C1(CCC1)O2 [5,7-dimethyl-3-(-(4,5-dimethyl-1H-imidazol-2-yl)spiro[chromene-2,1′-cyclobutan]-6-ol] |
| < 10 µM | – | Cc1cc2c(c(C)c1O)C(O)C1(CCC1)CO2 (stereo not drawn) [5,7-dimethyl-4H-spiro[chromene-3,1′-cyclobutane]-4,6-diol] |
